The record followed here is US11613552B2, “Pharmaceutical agents, compositions, and methods relating thereto” (Alltech, Inc., priority 2017, dated 2023).

A short description of series [1]: Body weight, gross morphology and walking behavior of treated Lepr^db/db mice. It is filed as in vivo. On the procedure: Body weights of the above treated mice were recorded daily using a balance and any visible abnormal animal gross morphology and walking behavior were monitored daily. After the treatments, animals were fasted overnight and then subjected to blood glucose or HbA1c assays, glucose tolerance tests or tissue collections.
After the treatments for 43 days, animals were fasted overnight and then subjected to blood glucose and glucose tolerance tests. After daily treatments of these compounds for 90 days, sera from these animals were collected and then subjected to blood HbA1c assays.

For a further series, the system named is Lepr^db/db mice. Briefly: Glucose tolerance test in Lepr^db/db mice. It is filed as in vivo, mouse. On the procedure:
Male Lepr^db/db mice at 38 days of age were intraperitoneally (ip) injected daily with physiological saline ([…]) containing 0.2% DMSO, Compound #C, Compound #50, Compound #68, and/or Compound #43 (25 μg selenium or sulfur equivalents of each compound per kilogram body weight, diluted in sterile physiological saline) for periods ranging from 43-90 days. Body weights of the above treated mice were recorded daily using a balance and any visible abnormal animal gross morphology and walking behavior were monitored daily. After the treatments, animals were fasted overnight and then subjected to blood glucose or HbA1c assays, glucose tolerance tests or tissue collections.
For comparative studies of any potential anti-diabetic effects of Compounds #43, #69 and #70, male Lepr^db/db mice at 41 days of age were intraperitoneally (ip) injected daily with physiological saline ([…]) containing 0.2% DMSO, Compound #43, Compound #69, or Compound #70 (25 μg selenium of each compound per kilogram body weight, diluted in sterile physiological saline). After the treatments for 43 days, animals were fasted overnight and then subjected to blood glucose and glucose tolerance tests. After daily treatments of these compounds for 90 days, sera from these animals were collected and then subjected to blood HbA1c assays.
Glucose tolerance tests were performed as described previously (Li et al, Int J Biol Sci 2008; 4:29-36). Briefly, overnight-fasted Lepr^db/db mice after saline or compound treatments were injected intraperitoneally with 2 grams/kg body weight of 20% D-glucose. Blood glucose levels at time 0 (immediately before the injection of glucose), 0.25, 0.5, 1 and 2 hours after injection of glucose were determined using a glucometer with a maximum glucose measurement capacity of 600 mg/dL. Because of this, blood glucose levels over 600 mg/dL were counted as 600 mg/dL in the data analysis.

The next series deals with Insrβ/Pdk1/Akt/AS160. In words: Western blot of Insrβ/Akt/AS160 phosphorylation in differentiated C2C12 cells. It is filed as cell-based, mouse. The conditions noted are these: for pInsrβ levels: 200 nM insulin or 600 ppb Compound #43, prolonged treatment 60 minutes. On the procedure: To differentiate the C2C12 cells, equal number of these myoblast cells were firstly seeded on 12-well plates (60,000 cells/well) and cultured in 10% FBS DMEM media at 37° C. for 5 days. These cells were replenished daily with fresh 10% FBS DMEM media. At day 5 after the culture, C2C12 cells were differentiated using 0.5% horse serum (Sigma)-containing DMEM media (differentiation media) for 7 days with daily replacement of fresh differentiation media, similar to previous described (Misu et al, Cell Metabolism 12, 483-495, 2010). At day 7 after the differentiation, differentiated C2C12 cells were rinsed with PBS twice and incubated in serum-free DMEM media overnight. Then these serum-starved cells were treated without (basal) or with insulin (200 nM), Compound #43 (600 ppb), or both insulin and Compound #43 in serum-free DMEM media at 37° C. for 5 and 60 minutes.
After the above treatments, cultured HepG2 cells or differentiated C2C12 cells were rinsed twice with ice-cold PBS and lysed in ice-cold RIPA buffer containing complete proteinase and phosphatase inhibitors (Thermo-Fisher Scientific, Waltham, Mass.) on ice for 30 min. Cell lysates were collected using a cell scraper and transfer pipette, and then centrifuged at 12000×g for 30 min at 4° C. to remove the DNA pellet and obtain the protein extract. Protein levels in the supernatant of these cell lysates were determined using the Pierce Micro-BCA protein assay kit (Thermo Scientific-Piece Biotechnology, Rockford, Ill.) according to the manufacturer's protocol.
One hundred micrograms of skeletal muscle or liver tissue proteins, five micrograms of HepG2 cell protein extracts, or eight micrograms of differentiated C2C12 cell protein extracts were subjected to SDS-PAGE gel separation and then transferred to PVDF membranes, as described previously (Reddy et al. 2008 Science). Membranes were blocked in a phosphate-buffered saline (PBS) containing 5% (w/v) of bovine serum albumin (Sigma, St. Louis, Mo.) and incubated with specific primary antibodies followed by the incubation with HRP-conjugated anti-mouse or anti-rabbit secondary antibodies (1:5000 dilution, Cell Signaling Inc.). All primary antibodies were purchased from Cell Signaling Inc, except the antibodies against β-tubulin (LI-COR bioscience). Positive signals on the membrane blots were detected using the Amersham's enhanced chemiluminescence Western Blotting Prime Detection reagents (GE Healthcare Lifescience, Pittsburgh, Pa.). Images of these luminescence signals on the membrane blots were captured using the LI-COR Odyssey Fc Image system (Lincoln, Nebr.). The same membrane blot was stripped and re-blotted with another antibody as described in the GE WB ECL-prime-detection protocol (GE healthcare Lifescience, Pittsburgh, Pa.). Protein band densities in the Western blots were determined using the NIH ImageJ software and then normalized by β-tubulin or ACTB protein level in each sample. Data are presented as mean±SEM of 3-5 samples per group.
Background: Immunoblotting shows a protein as a band on a membrane.

In another series the test system is INSRβ/AS160. Briefly: Western blot of INSRβ and AS160 phosphorylation in HepG2 cells. It counts as cell-based, human. The conditions noted are these: 600 ppb, 30 and 60 minutes (FIG. 23). On the procedure: HepG2 cells were seeded on 6-well plates (7×10^5 cells/well) and cultured in 10% FBS EMEM media for 30 hr. Then these cells were washed twice with PBS to remove residual sera, and serum-starved in plain EMEM media overnight. These serum-starved HepG2 cells were treated without or with Compound #43 (600 ppb) in serum-free media for 0 minute (right before the treatment), 30 and 60 minutes.
After the above treatments, cultured HepG2 cells or differentiated C2C12 cells were rinsed twice with ice-cold PBS and lysed in ice-cold RIPA buffer containing complete proteinase and phosphatase inhibitors (Thermo-Fisher Scientific, Waltham, Mass.) on ice for 30 min. […] Protein levels in the supernatant of these cell lysates were determined using the Pierce Micro-BCA protein assay kit (Thermo Scientific-Piece Biotechnology, Rockford, Ill.) according to the manufacturer's protocol.
One hundred micrograms of skeletal muscle or liver tissue proteins, five micrograms of HepG2 cell protein extracts, or eight micrograms of differentiated C2C12 cell protein extracts were subjected to SDS-PAGE gel separation and then transferred to PVDF membranes, as described previously (Reddy et al. 2008 Science). […] Positive signals on the membrane blots were detected using the Amersham's enhanced chemiluminescence Western Blotting Prime Detection reagents (GE Healthcare Lifescience, Pittsburgh, Pa.). […]

Setting [2] is: 200 nM insulin or 600 ppb Compound #43, 5 minutes.
Setting [3] is: 200 nM insulin or 600 ppb Compound #43, 60 minutes.

For `C[Se]C[C@H]1O[C@@H](n2cnc3c(N)ncnc32)C(OC(C)=O)C1OC(C)=O` (stereo partly shown) [Compound #43, Adenosine, 5′-Se-methyl-5′-selino-, 2′,3′-diacetate], the “overt toxic effects (morphology, walking behavior, body weight)” value in series [1] (25 μg selenium or sulfur/kg ip daily, 3 months) is recorded as “no overt toxic effects”; in series [1] (25 μg selenium/kg ip daily, 90 days, from 41 days of age), “no overt toxic effects”. In series [1] (acute single ip injection, 0.0054-5.4 mg/kg), the “visible toxic effects on gross morphological and walking behavior” value is recorded as “did not cause any visible toxic effects”. Also, the “glucose tolerance (overall)” value in the series on Lepr^db/db mice (25 μg selenium or sulfur/kg ip daily 2 months (FIG. 8B)) is “dramatically improves glucose tolerance”; with Lepr^db/db mice (25 μg selenium/kg ip daily 43 days from day 38, glucose 2 g/kg (FIG. 8A)), “can almost completely restore insulin action”; in the series with Lepr^db/db mice (25 μg selenium/kg ip daily 43 days from day 41 (FIG. 8C)), “can dramatically improve glucose tolerance”. Further, the “blood glucose level at 2 hr after glucose injection” value was “almost completely back to pre-injection glucose levels” with Lepr^db/db mice (FIG. 8A, 43 days treatment); “significantly lower than Compound #68-treated littermates” in the series with Lepr^db/db mice (FIG. 8B, 2 months treatment); “much lower than Saline-, Compound #69- or Compound #70-treated mice” with Lepr^db/db mice (FIG. 8C, 43 days treatment). The “blood glucose levels at 0.25, 0.5 and 1 hr after glucose injection” value with Lepr^db/db mice (FIG. 8A, 43 days treatment) is “visibly lower than saline-, Compound #C- or #50-treated mice”. Besides, the “blood glucose level at 1 hour after glucose injection” value with Lepr^db/db mice (FIG. 8C, 43 days treatment) is recorded as “significantly lower than saline-, Compound #69- or Compound #70-treated littermates”. Besides, the “pInsrβ at Y1146” value in the series on Insrβ/Pdk1/Akt/AS160 (setting [2]) is “significant increase of pInsrβ at Y1146”. Also, the results for the “phosphorylated Akt protein levels” value with Insrβ/Pdk1/Akt/AS160 (setting [2]) and in the series with Insrβ/Pdk1/Akt/AS160 (setting [3]) were “did not cause a significant increase of phosphorylated Akt protein levels” and “robust increased of phosphorylated Akt proteins levels”, respectively. In addition, the pInsrβ levels entry with Insrβ/Pdk1/Akt/AS160 is recorded as “decrease in pInsrβ levels”. Moreover, the “phosphorylated AS160 and total AS160 protein levels” value in the series on Insrβ/Pdk1/Akt/AS160 (600 ppb alone, 5 minutes) is “did not affect the protein levels of phosphorylated AS160 and total AS160”. Further, the “increase in phosphorylated AS160 at S588” value in the series with Insrβ/Pdk1/Akt/AS160 (600 ppb, 60 minutes) is “about 6 fold”. Moreover, in the series on Insrβ/Pdk1/Akt/AS160 (co-treatment insulin 200 nM and Compound #43 600 ppb, 5 minutes), the pInsrβ protein levels result was “tended to increase pInsrβ protein levels”. In the series with Insrβ/Pdk1/Akt/AS160 (co-treatment insulin and Compound #43, 5 and 60 minutes), the “phosphorylated AS160 protein levels” value is “significant increase of phosphorylated AS160 protein levels”. The pAkt protein levels result with Insrβ/Pdk1/Akt/AS160 (co-treatment insulin and Compound #43, both tested time points) is given as “significant increase of pAkt protein levels”. Further, the “phosphorylated AS160” value in the series with INSRβ/AS160 is on record as “significant increase of phosphorylated AS160 at 5588”. The “phosphorylated INSRβ at Y1146” value with INSRβ/AS160 was “significant increase of phosphorylated INSRβ at Y1146”.

On to “insulin: insulin purchased from Sigma, positive control”, for which, in the series with Insrβ/Pdk1/Akt/AS160 (setting [2]), the “pInsrβ at Y1146” value is given as “significant increase of pInsrβ at Y1146”. In addition, the “phosphorylated Akt protein levels” value in the series with Insrβ/Pdk1/Akt/AS160 (setting [2]) is listed as “significant increase of phosphorylated Akt”; in the series on Insrβ/Pdk1/Akt/AS160 (setting [3]), “not observed”. For the same compound, the pInsrβ levels result in the series with Insrβ/Pdk1/Akt/AS160 is recorded as “decrease in pInsrβ levels”. Also, in the series on Insrβ/Pdk1/Akt/AS160 (200 nM insulin, 5 min), the “increase in phosphorylation of AS160 at S588” value is reported as “about 2 fold”. Besides, the “phosphorylated AS160” value with Insrβ/Pdk1/Akt/AS160 (200 nM insulin, 60 minutes) is listed as “no obvious increase in phosphorylated AS160”.
